Data: patent US10287255B2, “Compounds as histone deacetylase 6 inhibitors and pharmaceutical compositions comprising the same” (CHONG KUN DANG PHARMACEUTICAL CORP., priority 2014, dated 2019)
pIC50: −log10 of the molar value.

How the values were obtained:
human recombinant HDAC1 = target: T1, human recombinant HDAC1 (Homo sapiens, UniProt Q13547); assay: HDAC1 enzyme activity inhibition assay (in vitro, fluorimetric); format: biochemical; conditions: human recombinant HDAC1, fluorimetric kit, 30° C. 60 minutes
T1 construct: purchased Enzo Life Science BML-SE456
T1 sequence (Q13547 whole entry): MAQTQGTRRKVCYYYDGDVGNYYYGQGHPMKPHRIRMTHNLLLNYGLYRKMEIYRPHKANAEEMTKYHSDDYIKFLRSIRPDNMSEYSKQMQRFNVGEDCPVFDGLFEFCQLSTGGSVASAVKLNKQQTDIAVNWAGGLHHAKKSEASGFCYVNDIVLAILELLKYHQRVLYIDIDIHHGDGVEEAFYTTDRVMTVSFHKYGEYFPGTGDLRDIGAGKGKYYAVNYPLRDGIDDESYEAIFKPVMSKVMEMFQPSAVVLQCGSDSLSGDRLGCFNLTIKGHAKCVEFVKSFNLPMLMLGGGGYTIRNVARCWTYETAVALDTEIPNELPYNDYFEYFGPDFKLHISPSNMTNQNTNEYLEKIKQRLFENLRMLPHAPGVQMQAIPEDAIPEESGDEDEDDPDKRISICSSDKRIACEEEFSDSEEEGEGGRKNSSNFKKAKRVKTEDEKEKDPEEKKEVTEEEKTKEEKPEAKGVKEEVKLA
Procedure, shortened: (§1)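 Human recombinant enzyme (0.3 μg for HDAC1) reacted with 10 μM Fluor de Lys-SIRT1 substrate and 5-fold compound dilutions at 30 °C for 60 min, then developer for 30 min. Fluorescence read at Ex 360/Em 460; IC50 calculated. HDAC6 run by the same protocol.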

human recombinant HDAC6 = target: T2, human recombinant HDAC6 (Homo sapiens, UniProt Q9UBN7); assay: HDAC6 enzyme activity inhibition assay (in vitro, fluorimetric); format: biochemical; conditions: for HDAC6 selectivity (fold): HDAC6 selectivity over HDAC1; for pIC50: human recombinant HDAC6, fluorimetric kit, same protocol as HDAC1
T2 construct: purchased Calbiochem 382180
T2 sequence (Q9UBN7 1-1215): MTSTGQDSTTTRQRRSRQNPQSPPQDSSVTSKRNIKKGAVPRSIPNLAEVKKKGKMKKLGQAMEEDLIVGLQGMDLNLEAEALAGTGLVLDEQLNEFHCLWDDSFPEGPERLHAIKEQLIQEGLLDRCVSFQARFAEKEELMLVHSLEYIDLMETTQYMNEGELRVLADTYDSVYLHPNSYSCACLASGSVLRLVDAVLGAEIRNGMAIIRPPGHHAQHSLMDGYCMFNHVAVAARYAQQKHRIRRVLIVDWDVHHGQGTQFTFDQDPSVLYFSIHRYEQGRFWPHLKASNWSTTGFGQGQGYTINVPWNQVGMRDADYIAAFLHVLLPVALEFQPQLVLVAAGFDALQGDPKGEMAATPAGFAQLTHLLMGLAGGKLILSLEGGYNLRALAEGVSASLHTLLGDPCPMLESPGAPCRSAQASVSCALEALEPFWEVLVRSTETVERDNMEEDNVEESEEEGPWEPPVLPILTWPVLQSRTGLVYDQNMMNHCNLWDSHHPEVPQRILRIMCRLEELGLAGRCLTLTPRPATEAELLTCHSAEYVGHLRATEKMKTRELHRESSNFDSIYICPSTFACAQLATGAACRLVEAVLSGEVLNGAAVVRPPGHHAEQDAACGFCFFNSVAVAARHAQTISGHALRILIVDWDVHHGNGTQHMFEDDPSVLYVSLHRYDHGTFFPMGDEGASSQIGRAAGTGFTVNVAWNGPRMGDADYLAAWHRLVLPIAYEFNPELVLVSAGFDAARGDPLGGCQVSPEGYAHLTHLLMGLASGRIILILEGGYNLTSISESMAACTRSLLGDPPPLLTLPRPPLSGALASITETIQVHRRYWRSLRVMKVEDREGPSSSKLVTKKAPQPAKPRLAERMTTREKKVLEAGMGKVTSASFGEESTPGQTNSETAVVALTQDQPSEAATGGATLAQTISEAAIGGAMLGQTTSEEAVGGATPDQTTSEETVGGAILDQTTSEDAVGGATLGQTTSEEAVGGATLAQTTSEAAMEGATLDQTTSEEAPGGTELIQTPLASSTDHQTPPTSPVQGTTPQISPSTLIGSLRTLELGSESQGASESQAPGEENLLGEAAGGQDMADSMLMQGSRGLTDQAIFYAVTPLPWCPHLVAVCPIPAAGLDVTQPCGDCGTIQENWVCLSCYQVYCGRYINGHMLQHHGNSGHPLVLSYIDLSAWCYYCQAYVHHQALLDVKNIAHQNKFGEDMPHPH
Procedure, shortened: as §1

| pIC50 (human recombinant HDAC1) | HDAC6 selectivity (fold) (human recombinant HDAC6) | pIC50 (human recombinant HDAC6) | Compound |
| --- | --- | --- | --- |
| 4.91 | 67 fold | 6.74 | CC(C)=CCN1[C@H](C)CN(Cc2ccc(C(=O)NO)cc2)C[C@@H]1C [Compound 272, 4-(((3R,5S)-3,5-dimethyl-4-(3-methylbut-2-en-1-yl)piperazin-1-yl)methyl)-N-hydroxybenzamide] |
| 5.15 | 75 fold | 7.03 | C[C@@H]1CN(Cc2ccc(C(=O)NO)cc2)C[C@H](C)N1C(=O)c1ccccc1-c1ccncc1 [Compound 285, 4-(((3R,5S)-3,5-dimethyl-4-(2-(pyridin-4-yl)benzoyl)piperazin-1-yl)methyl)-N-hydroxybenzamide] |
| < 5.00 | >77 fold | 6.89 | C[C@@H]1CN(Cc2ccc(C(=O)NO)cc2)C[C@H](C)N1Cc1cccc(CN2CCN(CC(C)(C)O)CC2)c1 [Compound 386, N-hydroxy-4-(((3R,5S)-4-(3-((4-(2-hydroxy-2-methylpropyl)piperazin-1-yl)methyl)benzyl)-3,5-dimethylpiperazin-1-yl)methyl)benzamide] |
| 5.25 | 71 fold | 7.11 | CCN(CC)CC(C)NCc1cccc(C(=O)N2[C@H](C)CN(Cc3ccc(C(=O)NO)cc3)C[C@@H]2C)c1 (stereo partly drawn) [Compound 440, 4-(((3R,5S)-4-(3-(((1-(diethylamino)propan-2-yl)amino)methyl)benzoyl)-3,5-dimethylpiperazin-1-yl)methyl)-N-hydroxybenzamide] |
| 6.40 | 5 fold | 7.10 | C[C@@H]1CN(C(=O)Nc2ccccc2)C[C@H](C)N1Cc1ccc(C(=O)NO)cc1 [Compound 162, (3R,5S)-4-(4-(hydroxycarbamoyl)benzyl)-3,5-dimethyl-N-phenylpiperazine-1-carboxamide] |
| 4.91 | 51 fold | 6.62 | C[C@@H]1CN(Cc2ccc(C(=O)NO)cc2)C[C@H](C)N1C(=O)Nc1cccc(Cl)c1 [Compound 099, (2S,6R)-N-(3-chlorophenyl)-4-(4-(hydroxycarbamoyl)benzyl)-2,6-dimethylpiperazine-1-carboxamide] |
| < 5.00 | >28 fold | 6.45 | C[C@@H]1CN(Cc2ccc(C(=O)NO)cc2)C[C@H](C)N1Cc1cc(F)ccc1F [Compound 212, 4-(((3R,5S)-4-(2,5-difluorobenzyl)-3,5-dimethylpiperazin-1-yl)methyl)-N-hydroxybenzamide] |
| 4.97 | 33 fold | 6.49 | C[C@@H]1CN(Cc2ccc(C(=O)NO)cc2)C[C@H](C)N1C(=O)c1ccccc1C1=CCC(C)(C)CC1 [Compound 288, 4-(((3R,5S)-4-(4′,4′-dimethyl-2′,3′,4′,5′-tetrahydro-[1,1′-biphenyl]-2-carbonyl)-3,5-dimethylpiperazin-1-yl)methyl)-N-hydroxybenzamide] |
| 5.49 | 18 fold | 6.74 | C[C@@H]1CN(C(=O)c2ccco2)C[C@H](C)N1Cc1ccc(C(=O)NO)cc1 [Compound 115, 4-(((2S,6R)-4-(furan-2-carbonyl)-2,6-dimethylpiperazin-1-yl)methyl)-N-hydroxybenzamide] |
| 5.54 | 3 fold | 5.96 | C[C@@H]1CN(Cc2ccc(-c3ccco3)cc2)C[C@H](C)N1Cc1ccc(C(=O)NO)cc1 [Compound 303, 4-(((2S,6R)-4-(4-(furan-2-yl)benzyl)-2,6-dimethylpiperazin-1-yl)methyl)-N-hydroxybenzamide] |
| 5.24 | 481 fold | 7.92 | C[C@@H]1CN(Cc2ccc(C(=O)NO)cc2)C[C@H](C)N1Cc1cccc(-c2cccnc2)c1 [Compound 344, 4-(((3R,5S)-3,5-dimethyl-4-(3-(pyridin-3-yl)benzyl)piperazin-1-yl)methyl)-N-hydroxybenzamide] |
| 6.15 | 9 fold | 7.09 | C[C@@H]1CN(C(=O)Nc2cccc(Cl)c2)C[C@H](C)N1Cc1ccc(C(=O)NO)cc1 [Compound 104, (3R,5S)-N-(3-chlorophenyl)-4-(4-(hydroxycarbamoyl)benzyl)-3,5-dimethylpiperazine-1-carboxamide] |
| < 5.00 | >62 fold | 6.79 | C[C@@H]1CN(Cc2ccc(C(=O)NO)cc2)C[C@H](C)N1Cc1cccc(OCC2CCN(CC(C)(C)F)CC2)c1 [Compound 380, 4-(((3R,5S)-4-(3-((1-(2-fluoro-2-methylpropyl)piperidin-4-yl)methoxy)benzyl)-3,5-dimethylpiperazin-1-yl)methyl)-N-hydroxybenzamide] |
| 6.10 | 10 fold | 7.11 | Cc1cccc(NC(=O)N2C[C@@H](C)N(Cc3ccc(C(=O)NO)cc3)[C@@H](C)C2)c1 [Compound 167, (3R,5S)-4-(4-(hydroxycarbamoyl)benzyl)-3,5-dimethyl-N-m-tolylpiperazine-1-carboxamide] |
| 4.90 | 369 fold | 7.47 | CC(=O)N1[C@H](C)CN(Cc2ccc(C(=O)NO)cc2)C[C@@H]1C [Compound 082, 4-(((3R,5S)-4-acetyl-3,5-dimethylpiperazin-1-yl)methyl)-N-hydroxybenzamide] |
| 5.92 | 27 fold | 7.37 | C[C@@H]1CN(Cc2ccc(C(=O)NO)cc2)C[C@H](C)N1C(=O)c1cccc(CN2CCCCC2)c1 [Compound 424, 4-(((3R,5S)-3,5-dimethyl-4-(3-(piperidin-1-ylmethyl)benzoyl)piperazin-1-yl)methyl)-N-hydroxybenzamide] |
| 5.24 | 72 fold | 7.10 | C[C@@H]1CN(Cc2ccc(C(=O)NO)cc2)C[C@H](C)N1C(=O)C1CC1 [Compound 295, 4-(((3R,5S)-4-(cyclopropanecarbonyl)-3,5-dimethylpiperazin-1-yl)methyl)-N-hydroxybenzamide] |
| 5.29 | 57 fold | 7.05 | CC(=O)N1CCN(Cc2cccc(C(=O)N3[C@H](C)CN(Cc4ccc(C(=O)NO)cc4)C[C@@H]3C)c2)CC1 [Compound 435, 4-(((3R,5S)-4-(3-((4-acetylpiperazin-1-yl)methyl)benzoyl)-3,5-dimethylpiperazin-1-yl)methyl)-N-hydroxybenzamide] |
| 4.88 | 30 fold | 6.36 | C[C@@H]1CN(Cc2ccc(C(=O)NO)cc2)C[C@H](C)N1C(=O)c1cccc(C2=CCC(C)(C)CC2)c1 [Compound 247, 4-(((3R,5S)-4-(4′,4′-dimethyl-2′,3′,4′,5′-tetrahydro-[1,1′-biphenyl]-3-carbonyl)-3,5-dimethylpiperazin-1-yl)methyl)-N-hydroxybenzamide] |
| 5.62 | 3 fold | 6.16 | COc1cccc(CNC(=O)N2C[C@@H](C)N(Cc3ccc(C(=O)NO)cc3)[C@@H](C)C2)c1 [Compound 230, (3R,5S)-4-(4-(hydroxycarbamoyl)benzyl)-N-(3-methoxybenzyl)-3,5-dimethylpiperazine-1-carboxamide] |
| 5.49 | 12 fold | 6.58 | C[C@@H]1CN(Cc2ccc(C(=O)NO)cc2)C[C@H](C)N1C(=O)c1ccc(CN2CCN(C)CC2)cc1 [Compound 462, 4-(((3R,5S)-3,5-dimethyl-4-(4-((4-methylpiperazin-1-yl)methyl)benzoyl)piperazin-1-yl)methyl)-N-hydroxybenzamide] |
| 5.37 | 10 fold | 6.34 | Cc1ccccc1NC(=O)N1C[C@@H](C)N(Cc2ccc(C(=O)NO)cc2)[C@@H](C)C1 [Compound 166, (3R,5S)-4-(4-(hydroxycarbamoyl)benzyl)-3,5-dimethyl-N-o-tolylpiperazine-1-carboxamide] |
